Reference: ChEMBL document CHEMBL5724914, “Linking interpersonal differences in gut microbiota composition and drug biotransformation activity” (2024)

Tests used:
[1] = (§1) The drug is tested on Z-009 corresponding to pig gut metagenome with ENA study accession number: PRJEB37062 and ENA sample accession number: ERS12561809 for biotransformation under anaerobic condition. The drug concentrations were measured over 9 timepoints collected between 0 and 24 hours of incubation by liquid-chromatography-coupled mass spectrometry (LC–MS); conditions: 2 µM
[2] = as §1, with “WLS-006” for “Z-009”, “human” for “pig”, “ERS12561741” for “ERS12561809”; conditions: 2 µM
[3] = human gut metagenome, 24 h, 2 µM
[4] = human gut metagenome, 24 h, 2 µM; remark: listed apart in the source
[5] = as §1, with “Z-012” for “Z-009”, “to” for “to pig gut”, “ERS12561812” for “ERS12561809”; conditions: 2 µM
[6] = human gut metagenome, 24 h, 2 µM; remark: listed apart in the source
[7] = as §1, with “Z-027” for “Z-009”, “to” for “to pig gut”, “ERS12561826” for “ERS12561809”; conditions: 2 µM
[8] = as §1, with “Z-023” for “Z-009”, “to” for “to pig gut”, “ERS12561822” for “ERS12561809”; conditions: 2 µM
[9] = human gut metagenome, 24 h, 2 µM; remark: listed apart in the source
[10] = as §1, with “Z-005” for “Z-009”, “to” for “to pig gut”, “ERS12561805” for “ERS12561809”; conditions: 2 µM
[11] = human gut metagenome, 24 h, 2 µM; remark: listed apart in the source
[12] = as §1, with “WLS-090” for “Z-009”, “human” for “pig”, “ERS12561753” for “ERS12561809”; conditions: 2 µM
[13] = human gut metagenome, 24 h, 2 µM; remark: listed apart in the source
[14] = human gut metagenome, 24 h, 2 µM; remark: listed apart in the source
[15] = as §1, with “WLS-027” for “Z-009”, “human” for “pig”, “ERS12561744” for “ERS12561809”; conditions: 2 µM
[16] = human gut metagenome, 24 h, 2 µM; remark: listed apart in the source
[17] = as §1, with “Z-025” for “Z-009”, “rabbit” for “pig”, “ERS12561824” for “ERS12561809”; conditions: 2 µM
[18] = as §1, with “Z-002” for “Z-009”, “rabbit” for “pig”, “ERS12561802” for “ERS12561809”; conditions: 2 µM
[19] = human gut metagenome, 24 h, 2 µM; remark: listed apart in the source
[20] = as §1, with “Z-029” for “Z-009”, “rat” for “pig”, “ERS12561828” for “ERS12561809”; conditions: 2 µM
Note: call rule not given here.

Row | Structure (SMILES) | Bacterial Biotransformation [1] | Bacterial Biotransformation [2] | Bacterial Biotransformation [3] | Bacterial Biotransformation [4] | Bacterial Biotransformation [5] | Bacterial Biotransformation [6] | Bacterial Biotransformation [7] | Bacterial Biotransformation [8] | Bacterial Biotransformation [9] | Bacterial Biotransformation [10] | Bacterial Biotransformation [11] | Bacterial Biotransformation [12] | Bacterial Biotransformation [13] | Bacterial Biotransformation [14] | Bacterial Biotransformation [15] | Bacterial Biotransformation [16] | Bacterial Biotransformation [17] | Bacterial Biotransformation [18] | Bacterial Biotransformation [19] | Bacterial Biotransformation [20]
1 | CCCCC1=NC2(CCCC2)C(=O)N1Cc1ccc(-c2ccccc2-c2nnn[nH]2)cc1 [IRBESARTAN] | Compound metabolized | Compound metabolized | Compound metabolized | Compound metabolized | Compound NOT metabolized | Compound metabolized | Compound NOT metabolized | Compound metabolized | Compound metabolized | Compound metabolized | Compound metabolized | Compound metabolized | Compound metabolized | Compound NOT metabolized | Compound metabolized | Compound NOT metabolized | Compound NOT metabolized | Compound metabolized | Compound metabolized | Compound NOT metabolized
2 | CCN(CC)CCNC(C(=O)OCCC(C)C)c1ccccc1.Cl.Cl (stereo not given) | Compound metabolized | Compound metabolized | Compound NOT metabolized | Compound NOT metabolized | Compound NOT metabolized | Compound metabolized | Compound NOT metabolized | Compound NOT metabolized | Compound metabolized | Compound metabolized | Compound NOT metabolized | Compound metabolized | Compound metabolized | Compound NOT metabolized | Compound metabolized | Compound NOT metabolized | Compound NOT metabolized | Compound metabolized | Compound metabolized | Compound NOT metabolized
3 | CC(C)OC(=O)C(C)(C)Oc1ccc(C(=O)c2ccc(Cl)cc2)cc1 [FENOFIBRATE] | Compound metabolized | Compound metabolized | Compound metabolized | Compound NOT metabolized | Compound metabolized | Compound NOT metabolized | Compound metabolized | Compound metabolized | Compound NOT metabolized | Compound metabolized | Compound NOT metabolized | Compound metabolized | Compound metabolized | Compound NOT metabolized | Compound metabolized | Compound metabolized | Compound metabolized | Compound metabolized | Compound NOT metabolized | Compound NOT metabolized
4 | COc1ccccc1OCC(O)CN1CCN(CC(=O)Nc2c(C)cccc2C)CC1 (stereo not given) [RANOLAZINE] | Compound NOT metabolized | Compound NOT metabolized | Compound NOT metabolized | Compound NOT metabolized | Compound NOT metabolized | Compound NOT metabolized | Compound NOT metabolized | Compound metabolized | Compound NOT metabolized | Compound NOT metabolized | Compound NOT metabolized | Compound NOT metabolized | Compound NOT metabolized | Compound NOT metabolized | Compound NOT metabolized | Compound NOT metabolized | Compound NOT metabolized | Compound metabolized | Compound NOT metabolized | Compound NOT metabolized
5 | CC(C)(C)NC[C@H](O)COc1ccccc1C1CCCC1.CC(C)(C)NC[C@H](O)COc1ccccc1C1CCCC1.O=S(=O)(O)O [PENBUTOLOL SULFATE] | Compound metabolized | Compound metabolized | Compound metabolized | Compound metabolized | Compound NOT metabolized | Compound metabolized | Compound NOT metabolized | Compound metabolized | Compound metabolized | Compound metabolized | Compound metabolized | Compound metabolized | Compound metabolized | Compound metabolized | Compound metabolized | Compound NOT metabolized | Compound NOT metabolized | Compound metabolized | Compound metabolized | Compound NOT metabolized
6 | COc1ccc2[nH]c([S+]([O-])Cc3ncc(C)c(OC)c3C)nc2c1 (stereo not given) [OMEPRAZOLE] | Compound NOT metabolized | Compound metabolized | Compound metabolized | Compound metabolized | Compound NOT metabolized | Compound metabolized | Compound metabolized | Compound NOT metabolized | Compound metabolized | Compound NOT metabolized | Compound metabolized | Compound metabolized | Compound metabolized | Compound metabolized | Compound metabolized | Compound metabolized | Compound metabolized | Compound NOT metabolized | Compound metabolized | Compound metabolized
7 | CN1CCN(C(=O)O[C@H]2c3nccnc3C(=O)N2c2ccc(Cl)cn2)CC1 [ESZOPICLONE] | Compound NOT metabolized | Compound NOT metabolized | Compound NOT metabolized | Compound NOT metabolized | Compound NOT metabolized | Compound NOT metabolized | Compound NOT metabolized | Compound NOT metabolized | Compound NOT metabolized | Compound NOT metabolized | Compound NOT metabolized | Compound NOT metabolized | Compound NOT metabolized | Compound NOT metabolized | Compound NOT metabolized | Compound NOT metabolized | Compound NOT metabolized | Compound NOT metabolized | Compound NOT metabolized | Compound NOT metabolized
